Test results: the NIST ThermoML archive (doi:10.1021/acs.jced.5b00537)

Experiment: xn = mol fraction of the nth substance listed
Details: 100 kPa, Liquid; for viscosity: Cone and plate viscometry; for mass density: Vibrating tube method

CCC(C)(C)O [2-methylbutan-2-ol] + CC(C)CO
Details | mass density [kg/m3] | viscosity [mPa·s]
293.15 K, x1 = 0.101 | 803.58 | 4.697
293.15 K, x1 = 0.2 | 805.09 | 5.166
293.15 K, x1 = 0.301 | 806.61 | 5.487
293.15 K, x1 = 0.4 | 807.99 | 5.819
293.15 K, x1 = 0.5 | 809.31 | 6.094
293.15 K, x1 = 0.599 | 810.29 | 6.075
293.15 K, x1 = 0.7 | 810.83 | 5.951
293.15 K, x1 = 0.8 | 810.82 | 5.518
293.15 K, x1 = 0.9 | 810.12 | 5.081
293.15 K, x1 = 1 | 808.77 | 4.596
303.15 K, x1 = 0.101 | 795.96 | 3.244
303.15 K, x1 = 0.2 | 797.22 | 3.387
303.15 K, x1 = 0.301 | 798.63 | 3.616
303.15 K, x1 = 0.4 | 799.87 | 3.726
303.15 K, x1 = 0.5 | 800.87 | 3.775
303.15 K, x1 = 0.599 | 801.55 | 3.715
303.15 K, x1 = 0.7 | 801.84 | 3.597
303.15 K, x1 = 0.8 | 801.61 | 3.386
303.15 K, x1 = 0.9 | 800.89 | 3.187
303.15 K, x1 = 1 | 799.74 | 2.983
313.15 K, x1 = 0.101 | 788 | 2.392
313.15 K, x1 = 0.2 | 789.04 | 2.445
313.15 K, x1 = 0.301 | 790.24 | 2.526
313.15 K, x1 = 0.4 | 791.21 | 2.552
313.15 K, x1 = 0.5 | 791.89 | 2.539
313.15 K, x1 = 0.599 | 792.32 | 2.46
313.15 K, x1 = 0.7 | 792.36 | 2.365
313.15 K, x1 = 0.8 | 792.06 | 2.287
313.15 K, x1 = 0.9 | 791.35 | 2.204
313.15 K, x1 = 1 | 790.35 | 2.078
323.15 K, x1 = 0.101 | 779.8 | 1.749
323.15 K, x1 = 0.2 | 780.62 | 1.776
323.15 K, x1 = 0.301 | 781.62 | 1.8
323.15 K, x1 = 0.4 | 782.29 | 1.792
323.15 K, x1 = 0.5 | 782.77 | 1.756
323.15 K, x1 = 0.599 | 782.89 | 1.721
323.15 K, x1 = 0.7 | 782.77 | 1.664
323.15 K, x1 = 0.8 | 782.3 | 1.606
323.15 K, x1 = 0.9 | 781.58 | 1.549
323.15 K, x1 = 1 | 780.66 | 1.494
333.15 K, x1 = 0.101 | 771.08 | 1.31
333.15 K, x1 = 0.2 | 771.75 | 1.315
333.15 K, x1 = 0.301 | 772.36 | 1.329
333.15 K, x1 = 0.4 | 772.81 | 1.316
333.15 K, x1 = 0.5 | 772.96 | 1.277
333.15 K, x1 = 0.599 | 772.93 | 1.243
333.15 K, x1 = 0.7 | 772.58 | 1.206
333.15 K, x1 = 0.8 | 772.09 | 1.164
333.15 K, x1 = 0.9 | 771.38 | 1.128
333.15 K, x1 = 1 | 770.4 | 1.093
343.15 K, x1 = 0.101 | 762.05 | –
343.15 K, x1 = 0.2 | 762.45 | –
343.15 K, x1 = 0.301 | 762.79 | –
343.15 K, x1 = 0.4 | 762.98 | –
343.15 K, x1 = 0.5 | 762.91 | –
343.15 K, x1 = 0.599 | 762.66 | –
343.15 K, x1 = 0.7 | 762.18 | –
343.15 K, x1 = 0.8 | 761.63 | –
343.15 K, x1 = 0.9 | 760.84 | –
343.15 K, x1 = 1 | 759.8 | –
353.15 K, x1 = 1 | 749.13 | –
363.15 K, x1 = 1 | 738.77 | –
